The source of these data is article PMC8637440, “Structural Modifications Yield Novel Insights Into the Intriguing Pharmacodynamic Potential of Anti-inflammatory Nitro-Fatty Acids” (Frontiers in Pharmacology, 2021).

The target of assay [1] is T1, recombinant firefly luciferase (Photinus pyralis, UniProt P08659).
T1 construct: purchased Sigma-Aldrich
Briefly: Firefly luciferase activity assay. In kind it is biochemical. To be noted: 15 min at 37°C. How it is done:
Recombinant firefly luciferase (Sigma-Aldrich, St. Louis, Missouri, United States) was diluted to 10^4 U/mg in 1× PBS (phosphate buffered saline) and subsequently incubated with NFA or the substances of interest for 15 min at 37°C. Afterwards, 50 µl per reaction mix was transferred into a white 96-well plate, to which 50 µl/well Dual-Glo® (Promega, Madison, Wisconsin, United States) was added and incubated for another 10 min at 37°C. Luminescence was analyzed with a plate reader.
Suppl. Figure 1: Fatty acids interfere with firefly luciferase making the luc-based assays not suitable for analysis of signaling pathways modulated by NFA. 10 4 units of firefly luciferase were incubated with 1 µM and 10 µM OA or NFA with different carbon chain length (A) and Michael acceptor position (B) for 15 min at 37°C. Firefly activity is presented as percentage of vehicle control (DMSO) mean + SD, n=5. Compared to vehicle control statistical significance was calculated by one-way ANOVA with Bonferroni post-test. P-values of **P ≦0.0021, **** P ≦0.0001 are considered significant. DMSO, dimethyl sulfoxide; 9NOA, 9-nitro oleic acid; NFA, nitro-fatty acids, OA, oleic acid. […]

In assay [2] the test system is sEH. The assay is described as follows: Cell-based sEH activity assay in COS-7 cells. Conditions: 10 µM, 24 h. Details: species or system Afrikan green monkey. How it is done: sEH activity in the cells was analyzed using a Soluble Epoxide Hydrolase Cell-Based Assay Kit (Cayman Chemical, #600090). […] Following incubation, the cells were processed according to the manufacturer’s instructions. The assay uses an internal signal subtraction to minimize potential errors generated by sEH-independent product formation due esterase mediated hydrolysis. The fluorescence intensity of the samples was measured in a plate reader at excitation/emission wavelengths of 330/465 nm sEH activity was calculated by the 6-methoxy-2-naphthaldehyde standard curve.
Suppl. Figure 2: Effects of NFA on sEH activity in COS-7 cells. sEH activity in COS-7 cells treated with NFA (10 µM) differ in (A) chain length and (B) Michael acceptor position and […]
Cells were lysed, and hydrolase activity was measured by Epoxy Fluor
7 lysis presented as mean + SD, n=2-3. […] OA, […]
oleic acid, she, soluble epoxide hydrolase.
(1 picture or pasted object on this page, not shown here)

The target in assay [3] is T2, sEH (Homo sapiens, UniProt P34913).
T2 sequence (P34913 1-555): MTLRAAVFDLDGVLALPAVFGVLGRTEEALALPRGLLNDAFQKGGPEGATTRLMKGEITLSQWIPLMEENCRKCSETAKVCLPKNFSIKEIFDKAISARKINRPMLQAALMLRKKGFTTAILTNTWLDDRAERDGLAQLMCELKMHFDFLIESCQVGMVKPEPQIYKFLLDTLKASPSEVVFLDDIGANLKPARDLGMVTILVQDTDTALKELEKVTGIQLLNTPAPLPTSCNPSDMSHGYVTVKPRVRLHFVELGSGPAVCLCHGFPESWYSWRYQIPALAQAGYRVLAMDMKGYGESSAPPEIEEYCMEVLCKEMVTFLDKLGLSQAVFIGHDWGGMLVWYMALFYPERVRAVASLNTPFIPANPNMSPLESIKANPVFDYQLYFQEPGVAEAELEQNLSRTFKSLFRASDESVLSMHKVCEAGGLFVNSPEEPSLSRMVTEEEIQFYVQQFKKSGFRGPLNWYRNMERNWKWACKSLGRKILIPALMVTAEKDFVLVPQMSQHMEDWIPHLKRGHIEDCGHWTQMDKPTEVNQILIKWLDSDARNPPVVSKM
In kind it is biochemical. Details: purchased Cayman Chemicals #10011671. Conditions: 100 nM. How it is done:
FIGURE 3 Effects of NFA on sEH activity. […] Data are the mean ± SEM of n = 3–7. […] The cells were lysed, and hydrolase activity was measured by Epoxy Fluor 7 lysis. […] Statistical significance was calculated by one-way ANOVA with Bonferroni post-test and multiple comparisons against the DMSO control.

Each structure is given as a SMILES string.

T1 sequence (P08659 whole entry): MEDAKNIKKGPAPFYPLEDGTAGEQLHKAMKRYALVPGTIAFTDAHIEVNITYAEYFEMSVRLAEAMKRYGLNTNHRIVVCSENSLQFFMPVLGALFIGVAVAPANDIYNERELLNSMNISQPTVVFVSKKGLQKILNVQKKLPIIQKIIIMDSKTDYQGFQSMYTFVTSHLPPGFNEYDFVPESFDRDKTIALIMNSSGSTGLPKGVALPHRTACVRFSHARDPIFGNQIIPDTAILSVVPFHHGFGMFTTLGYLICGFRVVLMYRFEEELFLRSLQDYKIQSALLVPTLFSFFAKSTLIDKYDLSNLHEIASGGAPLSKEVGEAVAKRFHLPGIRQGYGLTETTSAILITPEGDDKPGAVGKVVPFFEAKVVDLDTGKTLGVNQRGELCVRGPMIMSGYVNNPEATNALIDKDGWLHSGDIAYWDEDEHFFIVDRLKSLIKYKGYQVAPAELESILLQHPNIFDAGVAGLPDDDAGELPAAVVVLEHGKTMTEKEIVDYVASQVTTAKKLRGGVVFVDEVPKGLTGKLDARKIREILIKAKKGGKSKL

`CCCCCCCCC=C(CCCCCCCC(=O)O)[N+](=O)[O-]` [18.9.9, 9-nitro-octadec-9-enoic acid]: the inhibition (usually the change of the read-out against control, counted positive when it falls) at 1 µM in assay [1] (1 µM) is > 50%. Moreover, the “inhibition of recombinant firefly luciferase” value in assay [1] (10 µM) was “complete inhibition”.

For `CCCCCCCC/C=C\CCCCCCCC(=O)O` [OA, oleic acid, reference compound], in the assay on sEH [2], the “inhibition of sEH activity in COS-7 cells” value is on record as “strong suppressive effect”. For the same molecule, on sEH [3], the “inhibition of recombinant sEH” value is recorded as “strong suppressive effect”.
